Assay results from PMC12613848, “First in human phase 1 study of DT2216, a selective BCL-xL degrader, in patients with relapsed/refractory solid malignancies” (Journal of Hematology & Oncology, 2025).
Read-outs that look alike come from different tables or passages of the source.

Test: Plasma pharmacokinetics of DT2216 in patients, phase 1 dose escalation
Type: in vivo, human
Details: human, plasma, iv, plasma; for clearance: read-out: CL (converted); for half-life: read-out: T½ (converted); for Vd: read-out: Vdss; for Tmax: median (min, max)
Protocol: Dose escalation consisted of the administration of DT2216 intravenously twice weekly at several different doses outlined in protocol attached. The starting dose was 0.04 mg/kg, established based on pre-clinical toxicity studies. Safety was evaluated using CTCAE version 5.0. The initial three dose levels enrolled one patient, following which for dose level 4 and 5, a 3 + 3 design was utilized following a 100% incremental dose increase for dose levels 2 to 5 until the first dose limiting toxicity (DLT) in cycle 1 was observed. Thereafter, a modified Fibonacci sequence was used to define dose escalation increments until the maximum tolerated dose (MTD) was reached as described in protocol. If no dose-limiting toxicity (DLT) was observed during the DLT monitoring period of first 28 days, the next patient was enrolled at the next higher dose level. Dose-limiting toxicities (DLTs) during the first treatment cycle were defined as any Grade 5 toxicity; Grade 4 neutropenia lasting > 7 days; febrile neutropenia; Grade 4 thrombocytopenia or Grade 3 thrombocytopenia with clinically significant hemorrhage or lasting ≥ 7 days; and Grade ≥ 3 non-hematologic toxicities, excluding nausea, vomiting, or diarrhea lasting ≤ 3 days or transient laboratory abnormalities resolving within 72 h. Hepatotoxicity meeting Hy’s law criteria was also considered a DLT. Transient Grade 3–4 electrolyte abnormalities resolving to ≤ Grade 2 within 72 h were not considered DLTs.
Patients were allowed a maximum of two intra-patient dose escalations. Patients received DT2216 by intravenous infusion on days 1 and 4 weekly for at least 4 weeks, with each cycle consisting of a 28-day cycle for a maximum duration of 1 year until disease progression, unacceptable toxicity, or other withdrawal criteria, as listed in the protocol. The extent of disease was evaluated using imaging studies and disease-appropriate tumor markers every 8 weeks from day 1 of the first cycle. RP2D was established based on MTD as well as other relevant data, including clinical signals of activity, PK, and PD data.
Premedication prior to each infusion was at the discretion of the investigator or according to institutional guidelines. Patient assessment and follow-up procedures can be found in the schedule of assessments in this study. The clinical response was evaluated using RECIST v1.1 per protocol. Blood samples were collected for PK analysis before and after post-infusion at defined intervals, along with platelet counts. Exploratory biomarkers include (but are not limited to) the assessment of BCL-XL and VHL levels in peripheral white blood cells (WBC).
Throughout the course of the dose escalation trial, only one dose-limiting toxicity was observed, with grade 4 thrombocytopenia at a dose level of 0.32 mg/kg. […] The pharmacokinetic parameters of DT2216 were determined in patients following doses on Cycle 1 Day 1 and Cycle 1 Day 22 (Tables 4 and 5). […] AUC0-∞ values ranged from 8650 to 72,300 ng · h/mL over the dose range of 0.04 mg/kg 0.4 mg/kg. […] The volume of distribution at steady state (Vss) was small (< 100 mL/kg) and consistent across the dose groups. Following repeated dosing, accumulation of DT2216 in plasma was not observed with twice weekly dosing, with accumulation ratio values ranging from 0.74 to 1.07 on Cycle 1 Day 22 ([…]) across the dose groups.

[1] = 0.12 mg/kg, Cycle 1 Day 22, 0.12 mg/kg IV BIW, mean (CV%), N = 1
[2] = 0.24 mg/kg, Cycle 1 Day 1, 0.24 mg/kg IV, mean (CV%), N = 7
[3] = 0.24 mg/kg, Cycle 1 Day 22, 0.24 mg/kg IV BIW, mean (CV%), N = 6
[4] = 0.32 mg/kg, Cycle 1 Day 1, 0.32 mg/kg IV, mean (CV%), N = 5
[5] = 0.32 mg/kg, Cycle 1 Day 22, 0.32 mg/kg IV BIW, mean (CV%), N = 5
[6] = 0.4 mg/kg, Cycle 1 Day 1, 0.4 mg/kg IV, mean (CV%), N = 4
[7] = 0.4 mg/kg, Cycle 1 Day 22, 0.4 mg/kg IV BIW, mean (CV%), N = 4

## Cc1ncsc1-c1ccc([C@H](C)NC(=O)[C@@H]2C[C@@H](O)CN2C(=O)[C@@H](NC(=O)CCCCCC(=O)N2CCN(CC[C@H](CSc3ccccc3)Nc3ccc(S(=O)(=O)NC(=O)c4ccc(N5CCN(CC6=C(c7ccc(Cl)cc7)CCC(C)(C)C6)CC5)cc4)cc3S(=O)(=O)C(F)(F)F)CC2)C(C)(C)C)cc1 [DT2216]
[1]
  clearance: 0.138 mL/min/kg
  half-life: 5.24 h
  Vd: 0.0665 L/kg
0.12 mg/kg, Cycle 1 Day 22, 0.12 mg/kg IV BIW, mean (CV%), N = 1, read-out: Cmax
  Cmax: 2190 ng/mL
0.12 mg/kg, Cycle 1 Day 22, 0.12 mg/kg IV BIW, N = 1
  Tmax: 2.5 h
0.24 mg/kg, Cycle 1 Day 1, 0.24 mg/kg IV, mean (CV%), N = 6, read-out: AUC0−24
  AUC(0-t): 24500 ng·h/mL
0.24 mg/kg, Cycle 1 Day 1, 0.24 mg/kg IV, mean (CV%), N = 6, read-out: AUClast
  AUC(0-t): 37600 ng·h/mL
0.24 mg/kg, Cycle 1 Day 1, 0.24 mg/kg IV, mean (CV%), N = 7, read-out: AUC0−∞
  AUC(0-inf): 36500 ng·h/mL
[2]
  clearance: 0.122 mL/min/kg
  half-life: 10.4 h
  Vd: 0.0839 L/kg
0.24 mg/kg, Cycle 1 Day 1, 0.24 mg/kg IV, mean (CV%), N = 7, read-out: Cmax
  Cmax: 4080 ng/mL
0.24 mg/kg, Cycle 1 Day 1, 0.24 mg/kg IV, N = 7
  Tmax: 0.75 h
0.24 mg/kg, Cycle 1 Day 22, 0.24 mg/kg IV BIW, mean (CV%), N = 6, read-out: AUC0−24
  AUC(0-t): 26300 ng·h/mL
0.24 mg/kg, Cycle 1 Day 22, 0.24 mg/kg IV BIW, mean (CV%), N = 6, read-out: AUC0−∞
  AUC(0-inf): 30100 ng·h/mL
0.24 mg/kg, Cycle 1 Day 22, 0.24 mg/kg IV BIW, mean (CV%), N = 6, read-out: AUClast
  AUC(0-t): 26400 ng·h/mL
[3]
  clearance: 0.15 mL/min/kg
  half-life: 7.27 h
  Vd: 0.0939 L/kg
0.24 mg/kg, Cycle 1 Day 22, 0.24 mg/kg IV BIW, mean (CV%), N = 6, read-out: Cmax
  Cmax: 3090 ng/mL
0.24 mg/kg, Cycle 1 Day 22, 0.24 mg/kg IV BIW, N = 6
  Tmax: 2.5 h
0.32 mg/kg, Cycle 1 Day 1, 0.32 mg/kg IV, mean (CV%), N = 5, read-out: AUC0−∞
  AUC(0-inf): 41500 ng·h/mL
[4]
  clearance: 0.132 mL/min/kg
  half-life: 7.09 h
  Vd: 0.0683 L/kg
0.32 mg/kg, Cycle 1 Day 1, 0.32 mg/kg IV, mean (CV%), N = 6, read-out: AUC0−24
  AUC(0-t): 33300 ng·h/mL
0.32 mg/kg, Cycle 1 Day 1, 0.32 mg/kg IV, mean (CV%), N = 6, read-out: AUClast
  AUC(0-t): 43200 ng·h/mL
0.32 mg/kg, Cycle 1 Day 1, 0.32 mg/kg IV, mean (CV%), N = 6, read-out: Cmax
  Cmax: 5710 ng/mL
0.32 mg/kg, Cycle 1 Day 1, 0.32 mg/kg IV, N = 6
  Tmax: 0.75 h
0.32 mg/kg, Cycle 1 Day 22, 0.32 mg/kg IV BIW, mean (CV%), N = 5, read-out: AUC0−24
  AUC(0-t): 32700 ng·h/mL
0.32 mg/kg, Cycle 1 Day 22, 0.32 mg/kg IV BIW, mean (CV%), N = 5, read-out: AUC0−∞
  AUC(0-inf): 35000 ng·h/mL
0.32 mg/kg, Cycle 1 Day 22, 0.32 mg/kg IV BIW, mean (CV%), N = 5, read-out: AUClast
  AUC(0-t): 32900 ng·h/mL
[5]
  clearance: 0.154 mL/min/kg
  half-life: 5.82 h
  Vd: 0.0837 L/kg
0.32 mg/kg, Cycle 1 Day 22, 0.32 mg/kg IV BIW, mean (CV%), N = 6, read-out: Cmax
  Cmax: 4480 ng/mL
0.32 mg/kg, Cycle 1 Day 22, 0.32 mg/kg IV BIW, N = 6
  Tmax: 2.5 h
0.4 mg/kg, Cycle 1 Day 1, 0.4 mg/kg IV, mean (CV%), N = 4, read-out: AUC0−24
  AUC(0-t): 53000 ng·h/mL
0.4 mg/kg, Cycle 1 Day 1, 0.4 mg/kg IV, mean (CV%), N = 4, read-out: AUC0−∞
  AUC(0-inf): 73200 ng·h/mL
0.4 mg/kg, Cycle 1 Day 1, 0.4 mg/kg IV, mean (CV%), N = 4, read-out: AUClast
  AUC(0-t): 72300 ng·h/mL
[6]
  clearance: 0.0928 mL/min/kg
  half-life: 10.7 h
  Vd: 0.0709 L/kg
0.4 mg/kg, Cycle 1 Day 1, 0.4 mg/kg IV, mean (CV%), N = 4, read-out: Cmax
  Cmax: 8590 ng/mL
0.4 mg/kg, Cycle 1 Day 1, 0.4 mg/kg IV, N = 4
  Tmax: 0.75 h
0.4 mg/kg, Cycle 1 Day 22, 0.4 mg/kg IV BIW, mean (CV%), N = 4, read-out: AUC0−24
  AUC(0-t): 53700 ng·h/mL
0.4 mg/kg, Cycle 1 Day 22, 0.4 mg/kg IV BIW, mean (CV%), N = 4, read-out: AUC0−∞
  AUC(0-inf): 59500 ng·h/mL
0.4 mg/kg, Cycle 1 Day 22, 0.4 mg/kg IV BIW, mean (CV%), N = 4, read-out: AUClast
  AUC(0-t): 54000 ng·h/mL
[7]
  clearance: 0.117 mL/min/kg
  half-life: 6.7 h
  Vd: 0.0729 L/kg
0.4 mg/kg, Cycle 1 Day 22, 0.4 mg/kg IV BIW, mean (CV%), N = 4, read-out: Cmax
  Cmax: 6270 ng/mL
0.4 mg/kg, Cycle 1 Day 22, 0.4 mg/kg IV BIW, N = 4
  Tmax: 2.5 h
Over dose range 0.04 mg/kg to 0.4 mg/kg IV, read-out: AUC0-∞ values
  AUC(0-inf): 8650 to 72300 ng·h/mL
Over dose range 0.04 mg/kg to 0.4 mg/kg IV, read-out: mean Cmax values
  Cmax: 738 to 8590 ng/mL
